From patent publication US20240165123A1, “USE OF A COMPOUND CONTAINING A TRICYCLIC HETEROARYL GROUP” (CSPC Zhongqi Pharmaceutical Technology (Shijiazhuang) Co., …, priority 2021, published 2024)

Assays:
[1] = system: OXA-induced Balb/c mouse atopic dermatitis model; experiment: Pharmacodynamic test in the OXA-induced mouse atopic dermatitis model; assay type: in vivo, female Balb/c mice
Description: The purpose of this test was to evaluate the pharmacodynamics of Compound (I) in the OXA-induced Balb/c mouse atopic dermatitis model. Repeated OXA stimulation of the dorsal skin of mice could produce a long-term inflammatory reaction. This model was closer to the clinical skin inflammation and was a common model for screening and evaluating compounds with anti-inflammatory activity.
Female Balb/c mice aged 8-9 weeks, number: 70
According to the body weight of animals in each group before administration, they were randomly divided into 7 groups with 10 animals in each group.
OXA induction was performed on the 7th day. The induction mode was to apply 5% OXA (dissolved in the acetone/olive oil (4/1) solvent) to the back of mice near the neck in an amount of 10 μL (1.5 cm×1.5 cm). Mice in the normal control group were applied with 10 μL of the acetone/olive oil (4/1) solvent in the same way. From the 1st da to 22nd day, the immunostimulation was performed, and 100 μL of 0.1% OXA (dissolved in the acetone/olive oil (4/1) solvent) was evenly applied on the back of mice near the neck. The application was performed every two days. Mice in the normal control group were applied with 100 μL of the acetone/olive oil (4/1) solvent in the same way. On the day of the immunostimulation, measuring the skin thickness, clinically scoring and photographing were required, and the OXA application was carried out after the above work was completed.
Compound (I) was administered by gavage twice a day (PO, bid) from the 1st to 22nd day. The administration was performed in the morning and completed before measuring the skin thickness, clinically scoring, photographing, and the OXA immunostimulation. The interval between two administrations was 8 hours.
Body weight data were recorded twice a week.
Skin thickness (1.5 cm×1.5 cm, the modeling area) was measured with a Mitutoyo digital indicator (Mitutoyo digimatic indicator, Type ID-C, USA) from the 1st to 22nd day. The measurement was performed every two days. If the skin thickness measurement and the OXA immunostimulation were performed on the same day, the skin thickness measurement would be preferred.
The skin in the modeling area was clinically scored according to the skin scoring criteria in Table 12 from the 1st to 22nd day and evaluated every two days. If the skin clinical scoring and the OXA immunostimulation were performed on the same day, the skin clinical scoring would be preferred.
At the end of the study, the tissue in the modeling area was stained with hematoxylin eosin for the skin pathological scoring and the epidermal thickness measurement.
After the mice were sacrificed, the dorsal skin was removed and fixed in 10% neutral formalin for 24 hours. It was dehydrated, then embedded in paraffin and made into 4-micron sections. The skin sections were stained with hematoxylin eosin, and the inflammatory cell infiltration and tissue changes in the stratum corneum, the epidermis layer and the dermis layer were observed under the microscope, and the pathological scores were made. The scoring criteria were: inflammatory cell aggregation and edema, which were divided into slight 1 point, moderate 2 points, and severe 3 points; telangiectasia, which was divided into slight 1 point, moderate 2 points, and severe 3 points.
The specific scoring criteria of inflammatory cell aggregation were as follows: (1) slight-1 point: inflammatory cells occupied a small amount of <10% of the dermal area of the skin; (2) moderate-2 points: inflammatory cells occupied 10%-50% of the dermal area of the skin; (3) severe-3 points: the inflammatory cells occupied greater than 50% of the dermal area of the skin. […]

[2] = Toxicity test of oral gavage administration in Beagle dogs, 28 consecutive days; assay type: in vivo; conditions: for AUC: NOAEL 3 mg/kg/time BID, 28-day test
Experimental: According to the general toxicology study in accordance with the NMPA “Good Laboratory Practice for Non-clinical Laboratory Studies” and FDA GLP specification (21CFR Part 58), and in line with the requirements of International Conference on Harmonization of Technical Requirements for Registration of Pharmaceuticals for Human Use (ICH) and the NMPA relevant guidelines, the toxicology study on Compound (I) was carried out to provide safety data support for the use of Compound (I) in clinical patients. The administration mode and the experimental results were as follows: […]

[3] = 3 mpk PO bid, after 22 days of treatment

For `NC(=O)c1cnc(Nc2ccc3c(c2)OC[C@H]2CN(S(=O)(=O)C4CC4)CCN32)nc1NC1CC1` [Compound (I), (R)-4-(cyclopropylamino)-2-((3-(cyclopropylsulfonyl)-1,2,3,4,4a,5-hexahydrobenzo[b]pyrazolo[1,2-d][1,4]oxazin-8-yl)amino)pyrimidine-5-arboxamide], the “Influence on the body weight of mice” value ([1]; 3, 10, 30 and 60 mpk PO bid, end of the study) was “no significant influence on the body weight of mice”, the Body weight ([1]; 3 mpk PO bid, 1st Day) was 18.11 ± 0.13 g and the Skin clinical score ([1]; 3 mpk PO bid, 1st Day) was 0.4 ± 0.16. The “Skin thickness (modeling area)” value ([1]; 3 mpk PO bid, 1st day) was 0.511 ± 0.016 mm, the Body weight ([1]; 3 mpk PO bid, 7th Day) was 18.83 ± 0.20 g and the “Skin thickness (modeling area)” value ([1]; 3 mpk PO bid, 7th day) was 0.944 ± 0.026 mm. For the same compound, the Skin clinical score ([1]; 3 mpk PO bid, 9th day) was 3.1 ± 0.10, the “Skin thickness (modeling area)” value ([1]; 3 mpk PO bid, 17th day) was 1.361 ± 0.043 mm and the Skin clinical score ([1]; 3 mpk PO bid, 19th day) was 2.9 ± 0.10. The Skin clinical score ([1]; 3 mpk PO bid, 22nd day) was 3.0 ± 0.00, the “Skin thickness (modeling area)” value ([1]; 3 mpk PO bid, 22nd day) was 1.368 ± 0.028 mm and the Epidermal thickness [1, 3] was 75.79 ± 3.36 μm. It also gave a Pathological score [1, 3] of 6.4 ± 0.34, a Body weight ([1]; 3 mpk PO bid, −7th Day) of 18.11 ± 0.13 g and a Body weight ([1]; 10 mpk PO bid, 1st Day) of 18.11 ± 0.13 g. For the same compound, the Skin clinical score ([1]; 10 mpk PO bid, 1st Day) was 0.4 ± 0.16, the “Skin thickness (modeling area)” value ([1]; 10 mpk PO bid, 1st day) was 0.535 ± 0.027 mm and the Body weight ([1]; 10 mpk PO bid, 7th Day) was 18.80 ± 0.22 g. For the same compound, the “Skin thickness (modeling area)” value ([1]; 10 mpk PO bid, 7th day) was 0.958 ± 0.026 mm, the Skin clinical score ([1]; 10 mpk PO bid, 9th day) was 3.0 ± 0.00 and the “Skin thickness (modeling area)” value ([1]; 10 mpk PO bid, 17th day) was 1.257 ± 0.020 mm. For the same compound, the Skin clinical score ([1]; 10 mpk PO bid, 19th day) was 2.7 ± 0.15, the Skin clinical score ([1]; 10 mpk PO bid, 22nd day) was 2.7 ± 0.15 and the “Skin thickness (modeling area)” value ([1]; 10 mpk PO bid, 22nd day) was 1.338 ± 0.021 mm. For the same compound, the Body weight ([1]; 10 mpk PO bid, −7th Day) was 18.11 ± 0.13 g, the Body weight ([1]; 30 mpk PO bid, 1st Day) was 18.10 ± 0.12 g and the Skin clinical score ([1]; 30 mpk PO bid, 1st Day) was 0.5 ± 0.17. The “Skin thickness (modeling area)” value ([1]; 30 mpk PO bid, 1st day) was 0.534 ± 0.029 mm, the Body weight ([1]; 30 mpk PO bid, 7th Day) was 18.79 ± 0.11 g and the “Skin thickness (modeling area)” value ([1]; 30 mpk PO bid, 7th day) was 0.976 ± 0.021 mm. It also gave a Skin clinical score ([1]; 30 mpk PO bid, 9th day) of 3.0 ± 0.00, a Body weight ([1]; 30 mpk PO bid, −7th Day) of 18.10 ± 0.12 g and a Body weight ([1]; 60 mpk PO bid, 1st Day) of 18.10 ± 0.12 g. The Skin clinical score ([1]; 60 mpk PO bid, 1st Day) was 0.6 ± 0.16, the “Skin thickness (modeling area)” value ([1]; 60 mpk PO bid, 1st day) was 0.556 ± 0.035 mm and the Body weight ([1]; 60 mpk PO bid, 7th Day) was 18.92 ± 0.13 g. The “Skin thickness (modeling area)” value ([1]; 60 mpk PO bid, 7th day) was 0.993 ± 0.033 mm, the Skin clinical score ([1]; 60 mpk PO bid, 9th day) was 3.0 ± 0.00 and the Body weight ([1]; 60 mpk PO bid, −7th Day) was 18.10 ± 0.12 g. The “Safety window, dose method” value ([2]; Beagle dogs, NOAEL 28-day test vs rat effective dose) was 3 fold, the “Safety window, exposure method” value ([2]; Beagle dogs, NOAEL 28-day test vs rat effective dose exposure) was 1 fold and the “Safety window of human equivalent dose of NOAEL relative to the human initial dose” value ([2]; beagle, dog, in vivo, 28 days) was 14 fold. For the same compound, the NOAEL at 28 days ([2]; beagle, dog, in vivo, po) was 6 mg/kg/day, the “NOAEL of repeated administration for 28 days” value ([2]; dog, in vivo, po) was 3 mg/kg/time and the AUC ([2]; female, beagle, dog, in vivo, po, dogs ♀) was 3930 ng·h/mL. The AUC ([2]; male, beagle, dog, in vivo, po, dogs ♂) was 3300 ng·h/mL and the “Human equivalent dose (based on 60 kg body weight)” value ([2]; of NOAEL for 28-day test of dogs) was 210 mg.
